By Kd is commonly meant a measure of binding affinity in units of concentration. Lower therefore signals a tighter complex.

The structures appear in SMILES notation.

In PMC5608031 (Hormone molecular biology and clinical investigation, 2017) one finds Kd data, which are given here for one compound.

The target in the test is human cytosolic sulfotransferase 1C4 (hSULT1C4) (Homo sapiens, UniProt O75897). Description: biochemical. In kind it is binding.
human cytosolic sulfotransferase 1C4 (hSULT1C4), sequence (O75897 whole entry): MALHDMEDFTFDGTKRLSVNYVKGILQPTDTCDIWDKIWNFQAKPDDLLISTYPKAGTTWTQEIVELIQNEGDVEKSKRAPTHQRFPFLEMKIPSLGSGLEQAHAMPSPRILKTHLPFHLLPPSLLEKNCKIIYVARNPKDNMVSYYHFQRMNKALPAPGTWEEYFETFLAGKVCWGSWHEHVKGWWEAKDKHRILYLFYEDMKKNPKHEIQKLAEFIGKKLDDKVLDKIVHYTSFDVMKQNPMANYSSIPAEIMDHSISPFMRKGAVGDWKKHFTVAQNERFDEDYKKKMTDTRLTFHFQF

`Nc1ncnc2c1ncn2[C@@H]1O[C@H](COP(=O)(O)O)[C@@H](OP(=O)(O)O)[C@H]1O` [PAP] came in with a Kd of 2800 ± 200 nM.
